The structures appear in SMILES notation. Several values for one entry are separate records, joined by “and”; a condition that tells them apart may be missing. Identical values can stand only once.

Common to all, as to type: in vivo
Assay [1] concerns Yellow nutsedge (Cypersus esculentus). Briefly: Field trial, post-emergent control of established Yellow nutsedge (Example 1). Conditions: 10 DAT, pyridate 24 fluid ounces/acre, sulfentrazone 12 fluid ounces/acre, visual estimate vs untreated plot, non-replicated. On the procedure:
Field trials were conducted to evaluate the efficacy of pyridate herbicide alone and in combination with sulfentrazone when applied in a post-emergent manner to established Yellow nutsedge (Cypersus esculentus). The field trial was conducted alongside of a gravel path on the Corbett Farm located Batten Pond Road in Selma, NC 27576. Yellow nutsedge was established and ranged from 8-12 inches in height. The distribution of weeds in the plots was uniform throughout this location.
Individual treatments were applied on a 1×4 meter squared plot area. The experimental design was a non-replicated linear strip plot. The applications were made with a RYOBI electric 4 gallon backpack sprayer equipped with 11004 nozzles with a spray pressure of 35 psi calibrated to deliver about 40 gallons per acre spray volume, respectively. All applications were applied on the same day. The wind speed was less than 10 mph at time of application.
Pyridate used in this trial was a five pound active ingredient per gallon emulsifiable concentrate (EC) marketed by Belchim Crop Protection as Tough® 5EC Herbicide. The sulfentrazone used in this trial was Sulfentrazone 4L Select marketed by Prime Source, a division of Albaugh, LLC. […]

For assay [2], the system named is green Kyllinga (Kyllinga brevifolia). Kind of assay: Post-emergent control of green Kyllinga, Hampstead, North Carolina (Example 3). The note with it: 35 DAT, rates per Table 3. On the procedure: A study was conducted to evaluate and compare the post-emergent control of green Kyllinga (Kyllinga brevifolia) versus the industry standards of Sulfentrazone Select or Halosulfuron 75 WDG. The study was conducted in Hampstead, North Carolina at Old Pointe Country Club. A randomized block design with four replications was utilized. Treatments were applied with a CO2 pressurized spray system. Irrigations were suspended for at least 24 hours after application.

Assay [3] deals with Yellow Nutsedge. Kind of assay: Post-emergent control of Yellow Nutsedge, Hampstead, North Carolina (Example 4). The note with it: 35 DAT, rates per Table 5. On the procedure: A study was conducted to evaluate and compare the post-emergent control of Yellow Nutsedge versus the industry standards of Sulfentrazone Select or Halosulfuron 75 WDG. The study was conducted in Hampstead, North Carolina at Old Pointe Country Club. A randomized block design with four replications was utilized. Treatments were applied with a CO2 pressurized spray system. Irrigations were suspended for at least 24 hours after application. [table]

`Cc1nn(-c2cc(NS(C)(=O)=O)c(Cl)cc2Cl)c(=O)n1C(F)F` [Sulfentrazone, sulfentrazone]: the “Percentage (%) Control 10 Days after Treatment (DAT)” value in assay [1] is “approximately 70% and 70%”. Further, the entries for the “Percentage Control” value in assay [2] and in assay [3] were 43.3% and 60%, respectively.
`CCCCCCCCSC(=O)Oc1cc(Cl)nnc1-c1ccccc1` [Pyridate, pyridate]: the “Percentage (%) Control 10 Days after Treatment (DAT)” value in assay [1] was “approximately 20% and 20%”.

The values are drawn from patent US20240260578A1, “HERBICIDAL COMPOSITIONS AND RELATED METHODS” (BELCHIM Crop Protection USA LLC, priority 2023, published 2024).
